The values below come from patent US20140309221A1, “METHOD OF INHIBITING HAMARTOMA TUMOR CELLS” (DANA-FARBER CANCER INSTITUTE, INC., priority 2011, published 2014).

Entries after “also recorded” stand apart in the source; their conditions may differ.

The subject of test [1] is PHTS symptoms in K14-cre-Pten f/f mice. Briefly: Early administration: prevention of PHTS symptom development in K14-cre-Pten f/f mice. The format is in vivo. To be noted: 25 mg/kg daily by oral gavage beginning at 3 weeks of age. As to the method: (§1) 4-(Trifluoromethyl)-5-(2,6-dimorpholinopyrimidin-4-yl)pyridin-2-amine powder was dissolved in 1 volume of NMP (1-methyl-2-pyrrolidone). After dissolution (if needed, in warm water), add 9 volumes of PEG300. The final ratio is: NMP 10%/PEG300 90%.
Pten f/f mice (Lesche, R., et al., Cre/loxP-mediated inactivation of the murine Pten tumor suppressor gene. Genesis, 2002. 32(2): 148-9) were crossed with K14-cre mice (Jonkers, J., et al., Synergistic tumor suppressor activity of BRCA2 and p53 in a conditional mouse model for breast cancer. Nat Genet, 2001. 29(4): 418-25) to generate K14-Cre Pten f/f mice in which the floxed Pten allele is deleted specifically in the keratinocytes by the K14-driven Cre recombinase. […]
K14-cre-Pten f/f mice were treated daily with 25 mg/kg 4-(trifluoromethyl)-5-(2,6-dimorpholinopyrimidin-4-yl)pyridin-2-amine by oral gavage beginning at 3 weeks of age and the development of PHTS symptoms monitored. […]

For test [2] the test system is unchanged. Briefly: Administration to K14-cre-Pten f/f mice with fully developed PHTS: relief of symptoms. The format is in vivo. As to the method: as §1
Pten f/f mice (Lesche, R., et al., Cre/loxP-mediated inactivation of the murine Pten tumor suppressor gene. Genesis, 2002. 32(2): 148-9) were crossed with K14-cre mice (Jonkers, J., et al., Synergistic tumor suppressor activity of BRCA2 and p53 in a conditional mouse model for breast cancer. Nat Genet, 2001. 29(4): 418-25) to generate K14-Cre Pten f/f mice in which the floxed Pten allele is deleted specifically in the keratinocytes by the K14-driven Cre recombinase. These mice were further crossed with p110a f/f (Zhao, J. J., et al., The p110 alpha isoform of PI3K is essential for proper growth factor signaling and oncogenic transformation. Proc Natl Acad Sci USA, 2006. 103(44): 16296-300) and p110b f/f mice (Jia, S., et al., Essential roles of PI(3)K-p110beta in cell growth, metabolism and tumorigenesis. Nature, 2008) to generate K14-cre Pten f/f, K14-cre Pten f/f; p110a f/f, K14-cre Pten f/f; p110b f/f, and K14-cre-Pten f/f; p110a f/f; p110b f/f mice. Keratinocyte-specific deletion of Pten results in multiple dermal lesions in the K14-cre Ptenf/f mice that resemble multiple skin hamartomas of PHTS. […]

Turning to `Nc1cc(C(F)(F)F)c(-c2cc(N3CCOCC3)nc(N3CCOCC3)n2)cn1` [COMPOUND A, 4-(trifluoromethyl)-5-(2,6-dimorpholinopyrimidin-4-yl)pyridin-2-amine], the “development of PHTS symptoms (PHTS free survival)” value in test [1] (n=12) was “remained free of PHTS symptoms”; in test [1] (n=12, listed as 4-(trifluoromethyl)-5-(2,6-dimorpholinopyrimidin-4-yl)pyridin-2-amine) it was “remained free of PHTS symptoms; also recorded: entirely blocked appearance of PHTS”. The “relief of PHTS symptoms” value in test [2] (K14-cre-Pten f/f mice with fully developed PHTS (12-14 weeks of age), 45 mg/kg daily by oral gavage for 4 weeks, 45 mg/kg) is “dramatically relieved the PHTS symptoms; also recorded: completely reversed the phenotype of PHST”. For the same molecule, in test [2] (K14-cre-Pten f/f mice with fully developed PHTS, 45 mg/kg daily by oral gavage, end of 4 weeks), the “PHTS symptoms at the end of the 4-week treatment” value is given as “substantially or completely reduced”.
